# Results: PubChem BioAssay AID1552 (Sanford-Burnham Center for Chemical Genomics, 2009)
# Activity calls are given as the source filed them. The rule behind the calls is not given here.
# Target: Ubiquitin-conjugating enzyme E2 N (Homo sapiens) (UniProt P61088)
# Experiment: UBE2N binders by NMR, biophysical, purified protein (AID 1552)
# Settings: NMR binding to purified UBE2N
# Chain of Ubiquitin-conjugating enzyme E2 N (Homo sapiens) (P61088 whole entry, looked up): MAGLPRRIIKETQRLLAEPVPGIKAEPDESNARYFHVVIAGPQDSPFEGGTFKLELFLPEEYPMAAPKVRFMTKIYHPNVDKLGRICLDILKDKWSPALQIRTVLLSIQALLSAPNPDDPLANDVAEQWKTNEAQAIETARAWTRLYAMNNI
row,Compound,Kd
1,Oc1cccc(N2CCOCC2)c1,> 4 mM (inactive)
2,O=C1CS/C(=N/N=C2CCCC2)N1,> 4 mM (inactive)
3,CC1CCC2(OC1)OC1CC3C4CC[C@H]5C[C@@H](O)CC[C@]5(C)C4CC(=O)[C@]3(C)C1C2C (stereo not given in full),> 4 mM (inactive)
4,Cc1cc(C)cc(OC(=O)N2CCOCC2)c1,> 4 mM (inactive)
5,O=C(O)Cc1nc(-c2ccncc2)n[nH]1,> 4 mM (inactive)
6,CC(=O)CS(=O)(=O)c1ccccc1,> 4 mM (inactive)
7,Nc1cc(F)cc(F)c1,> 4 mM (inactive)
8,CC(=O)Nc1cccs1,> 4 mM (inactive)
9,O=C1CCCc2c1nc(-c1ccccc1)n2O,> 4 mM (inactive)
10,CC(=O)c1sc2nc(N)nn2c1C,> 4 mM (inactive)
11,Cc1ccccc1NC(=O)C1CC(=O)N=C(N)S1 (stereo not given),> 4 mM (inactive)
12,O=C(O)CCN1CCOCC1,> 4 mM (inactive)
13,O=C(Nn1cnnc1)c1cc2c(s1)CCCCC2,> 4 mM (inactive)
14,NCc1ccc2c(c1)OCCO2,> 4 mM (inactive)
15,Cc1cc(C(=O)N2CCN(c3ccccn3)CC2)no1,> 4 mM (inactive)
16,COc1ccc(C2(C)CC(=O)NC2=O)cc1 (stereo not given),> 4 mM (inactive)
17,OCC1Cc2ccccc2CN1 (stereo not given),> 4 mM (inactive)
18,CC1(C)C2CC(=O)[C@]3(C)C(CC[C@@]4(C)[C@H](c5ccoc5)OC(=O)[C@H]5O[C@]543)[C@@]2(C)C(=O)C[C@H]1O (stereo not given in full),> 4 mM (inactive)
19,C[N+](C)(C)CC(O)CC(=O)O (stereo not given),> 4 mM (inactive)
20,O=C(O)c1csc(-c2ccccc2)n1,> 4 mM (inactive)
21,Cc1noc(C)c1C(=O)Nc1ccccc1-c1ccccc1,> 4 mM (inactive)
22,S=C(NCC1CCCO1)NC1CC1 (stereo not given),> 4 mM (inactive)
23,Cc1cc(SCCF)n2ncnc2n1,> 4 mM (inactive)
24,c1ccc2nc3c(nc2c1)CCc1nonc1-3,> 4 mM (inactive)
25,O=C(O)c1[nH]nc2c1COc1ccccc1-2,> 4 mM (inactive)
26,O=C(O)CSc1nc2ccccc2c(=O)[nH]1,> 4 mM (inactive)
27,Cc1occc(=O)c1O,> 4 mM (inactive)

row,Compound,Kd
1,O=C(O)CSc1cccc2cccnc12,> 4 mM (inactive)
2,CCCCCC1C(=O)CCC1CC(=O)O (stereo not given),> 4 mM (inactive)
3,CNC(=S)N1CCN(C(=O)c2ccco2)CC1,> 4 mM (inactive)
4,COc1ccc2[nH]cc(CCN(C)C)c2c1,> 4 mM (inactive)
5,Cc1nc2ccc(NC(=O)N3CCOCC3)cc2s1,> 4 mM (inactive)
6,CC(C)NS(=O)(=O)c1ccc(N)cc1,> 4 mM (inactive)
7,CC(=O)OC[C@@]1(O)C[C@@]23CCC4c5ccoc5CC[C@]4(C)C2CC[C@@H]1C3 (stereo not given in full),> 4 mM (inactive)
8,c1cc(CNc2ccc3c(c2)OCCO3)ccn1,> 4 mM (inactive)
9,CN1CCN(c2cc(=O)n(C)c(=O)[nH]2)CC1,> 4 mM (inactive)
10,C[C@@H]1CC[C@@]2(NC1)O[C@H]1C[C@H]3C4CC=C5C[C@@H](O)CC[C@]5(C)C4CC[C@]3(C)C1[C@@H]2C (stereo not given in full),> 4 mM (inactive)
11,COc1c2ccccc2nc2occc12,> 4 mM (inactive)
12,COc1cccc(C(=O)Nc2c(C)n[nH]c2C)c1,> 4 mM (inactive)
13,Cn1c(=O)c2c(ncn2CCNC2=NCCC2)n(C)c1=O,> 4 mM (inactive)
14,CC(C)NC(=O)c1cc(=O)n(C)c(=O)n1C,> 4 mM (inactive)
15,O=C1CSC(c2ccc3c(c2)OCO3)N1 (stereo not given),> 4 mM (inactive)
16,COc1ccc(C(N)=O)cc1NC(C)=O,> 4 mM (inactive)
17,Fc1ccc(-c2n[nH]c(=S)n2CC2CCCO2)cc1 (stereo not given),> 4 mM (inactive)
18,O=C(Nc1ccon1)c1csc2c1CCCC2,> 4 mM (inactive)
19,CC1(c2ccncc2)NC(=O)NC1=O (stereo not given),> 4 mM (inactive)
20,COc1ccc(NC2=NCC(C)S2)cc1 (stereo not given),> 4 mM (inactive)
21,O=C(Nc1ccon1)c1ccc(Br)o1,> 4 mM (inactive)
22,CN1CCC(NC(=O)c2ccccc2[N+](=O)[O-])CC1,> 4 mM (inactive)
23,CC(=O)O[C@H]1C[C@@H](OC(C)=O)C(C)(C)C2C[C@@H](O)[C@]3(C)C(CC[C@@]4(C)[C@H](c5ccoc5)OC(=O)[C@H]5O[C@]543)[C@]21C (stereo not given in full),> 4 mM (inactive)
24,Cc1noc(C)c1C(=O)Nc1ccc2c(c1)CCC2,> 4 mM (inactive)
25,CC(=O)OC(C)(C)[C@@H]1Cc2cc3ccc(=O)oc3cc2O1,> 4 mM (inactive)
26,N#Cc1cc(-c2ccccc2)oc1N,> 4 mM (inactive)
27,CN(C)N1C(=O)C2C3C=CC(O3)C2C1=O (stereo not given),> 4 mM (inactive)

row,Compound,Kd
1,CC(=O)Nc1cc(N2C(=O)C=CC2=O)ccc1Cl,> 4 mM (inactive)
2,Cc1c(C(=O)N2CCOCC2)oc2c1C(=O)CC(C)(C)C2,> 4 mM (inactive)
3,O=C(O)c1ccc(-c2ccccn2)s1,> 4 mM (inactive)
4,CCOC(=O)c1cc(C)n(-n2cnnc2)c1C,> 4 mM (inactive)
5,C[C@@H]1CC[C@@]2(OC1)O[C@H]1CC3C4CC[C@H]5C[C@@H](O)CC[C@]5(C)C4CC[C@]3(C)[C@H]1[C@@H]2C (stereo not given in full),> 4 mM (inactive)
6,Nc1c(C(=O)O)sc2ncccc12,> 4 mM (inactive)
7,Cc1ncc(C(=O)O)c(-c2ccccc2)n1,> 4 mM (inactive)
8,O=C1Cc2ccccc2N1c1ccccc1,> 4 mM (inactive)
9,CC(=O)Nc1cc(C(N)=O)cc(C(N)=O)c1,> 4 mM (inactive)
10,O=C(Nc1cnccn1)c1cccs1,> 4 mM (inactive)
11,NC(=O)c1cn(-c2ccccc2)nc1-c1cccnc1,> 4 mM (inactive)
12,O=C(/C=C/C=C/c1ccc2c(c1)OCO2)N1CCCCC1,> 4 mM (inactive)
13,Cn1c(=O)[nH]c(=O)c2nsnc21,> 4 mM (inactive)
14,CC(C)CNc1cc(=O)n(C)c(=O)n1C,> 4 mM (inactive)
15,NC(=O)CCn1ncc2ccccc21,> 4 mM (inactive)
16,CCCCCC(=O)Cc1cc(O)cc(O)c1C(=O)Oc1cc(CC(=O)CCCCC)c(C(=O)O)c(OC)c1,> 4 mM (inactive)
17,COc1c2c(cc3c1OCO3)C13C=C[C@H](OC)CC1N(C2)CC3O (stereo not given in full),> 4 mM (inactive)
18,COC(=O)[C@]1(C)CC[C@]2(C)CC[C@]3(C)C4=CC=C5C(=CC(=O)C(O)=C5C)[C@]4(C)CC[C@@]3(C)[C@@H]2C1,> 4 mM (inactive)
19,COC1=CC(=O)C[C@@H](C)[C@]12Oc1c(Cl)c(OC)cc(OC)c1C2=O,> 4 mM (inactive)
20,CC(=O)c1cccc(N=C2NC(=O)CS2)c1,> 4 mM (inactive)
21,Cc1cc(C)n2nc(SCC(=O)c3ccccc3)nc2n1,> 4 mM (inactive)
22,Nc1ccc(S(=O)(=O)N2CCCCC2)cc1,> 4 mM (inactive)
23,NC[C@H]1O[C@H](O[C@H]2[C@H](O)[C@@H](O[C@H]3O[C@H](CO)[C@@H](O)[C@H](N)[C@H]3O)[C@H](N)C[C@@H]2N)[C@H](N)[C@@H](O)[C@@H]1O,> 4 mM (inactive)
24,COc1ccc2c(c1OC)C(=O)O[C@@H]2[C@@H]1c2cc3c(cc2CCN1C)OCO3,> 4 mM (inactive)
25,Cc1cc(C(=O)Nc2sc(C)c(C)c2C#N)c(C)o1,> 4 mM (inactive)
26,O=C(O)c1cc(O)c2c(c1)[C@@H]([C@H]1c3cc(C(=O)O)cc(O)c3C(=O)c3c(O[C@H]4O[C@H](CO)[C@@H](O)[C@H](O)[C@H]4O)cccc31)c1cccc(O[C@H]3O[C@H](CO)[C@@H](O)[C@H](O)[C@H]3O)c1C2=O,> 4 mM (inactive)
